Values after ≈ are worked out from the molar mass of the structure shown. Where two headings read alike, the source gives them in different places.
How the values were obtained:
S. aureus = assay: MIC, CLSI microtiter dilution, S. aureus; type: cell-based, Staphylococcus aureus
Description: (§1) The products of the present invention were tested for their activity against A. baumannii as well as against the following bacteria: Staphylococcus aureus (S. aureus), Streptococcus pneumoniae (S. pneumoniae), Enterococcus faecium (E. faecium), Pseudomonas aeruginosa (P. aeruginosa), Klebsiella pneumoniae (K. pneumoniae.), Enterobacter aerogenes (E. aerogenes) and Escherichia coli (E. coli).
(§2) Minimal inhibitory concentrations (MICs) were determined using a standard microtiter dilution method, according to the Clinical and Laboratory Standards Institute (CLSI) procedures, in particular according to M07-A9: “Methods for Dilution Antimicrobial Susceptibility Tests for Bacteria That Grow Aerobically; Approved Standard—Ninth Edition”.
(§3) Briefly, compounds were dissolved with dimethyl sulfoxide (DMSO) at 12.8 mg/mL. Serial two-fold dilutions of compounds were performed in DMSO and 1 μl of each dilution were transferred into microtiter culture plates, followed by 100 μl of inoculated culture media to give a final microorganism concentration of 5×10^5 colony-forming units/mL. Plates were incubated at 37° C. for 24 hours and MICs determined as the lowest compound concentration that inhibited growth. Media used in determinations were Cation adjusted Mueller-Hinton Broth for all the microorganisms except for S. pneumoniae and E. faecium whose culture media were supplemented with 2.5% of lysed horse blood. Incubations were performed at air atmosphere except S. pneumoniae cultures that were incubated with 5% CO2 atmosphere.

P. aeruginosa = assay: MIC, CLSI microtiter dilution, P. aeruginosa; type: cell-based, Pseudomonas aeruginosa
Description: as §1, §2, §3

E. aerogenes = assay: MIC, CLSI microtiter dilution, E. aerogenes; type: cell-based, Enterobacter aerogenes
Description: as §1, §2, §3

E. coli = assay: MIC, CLSI microtiter dilution, E. coli; type: cell-based, Escherichia coli
Description: as §1, §2, §3

K. pneumoniae = assay: MIC, CLSI microtiter dilution, K. pneumoniae; type: cell-based, Klebsiella pneumoniae
Description: as §1, §2, §3

S. pneumoniae = assay: MIC, CLSI microtiter dilution, S. pneumoniae; type: cell-based, Streptococcus pneumoniae
Description: as §1, §2, §3

E. faecium = assay: MIC, CLSI microtiter dilution, E. faecium; type: cell-based, Enterococcus faecium
Description: as §1, §2, §3

A. baumannii = assay: MIC, CLSI microtiter dilution, A. baumannii; type: cell-based, Acinetobacter baumannii
Description: as §1, §2, §3

[1] = Staphylococcus aureus, S. aureus, 37° C., 24 hours, Cation adjusted Mueller-Hinton Broth, read-out: MIC
[2] = Pseudomonas aeruginosa, P. aeruginosa, 37° C., 24 hours, Cation adjusted Mueller-Hinton Broth, read-out: MIC
[3] = Klebsiella aerogenes, E. aerogenes, 37° C., 24 hours, Cation adjusted Mueller-Hinton Broth, read-out: MIC
[4] = Escherichia coli, E. coli, 37° C., 24 hours, Cation adjusted Mueller-Hinton Broth, read-out: MIC
[5] = Klebsiella pneumoniae, K. pneumoniae, 37° C., 24 hours, Cation adjusted Mueller-Hinton Broth, read-out: MIC
[6] = Streptococcus pneumoniae, S. pneumoniae, 37° C., 24 hours, 2.5% lysed horse blood, 5% CO2, read-out: MIC
[7] = Enterococcus faecium, E. faecium, 37° C., 24 hours, 2.5% lysed horse blood, read-out: MIC
[8] = Acinetobacter baumannii, A. baumannii, 37° C., 24 hours, Cation adjusted Mueller-Hinton Broth, read-out: MIC

| Compound | MIC (S. aureus; Staphylococcus aureus, 24 h) [µg/mL] | MIC (P. aeruginosa; Pseudomonas aeruginosa, 24 h) [µg/mL] | MIC (E. aerogenes; Klebsiella aerogenes, 24 h) [µg/mL] | MIC (E. coli; Escherichia coli, 24 h) [µg/mL] | MIC (K. pneumoniae; Klebsiella pneumoniae, 24 h) [µg/mL] | MIC (S. pneumoniae; Streptococcus pneumoniae, 24 h) [µg/mL] | MIC (E. faecium; Enterococcus faecium, 24 h) [µg/mL] | MIC (A. baumannii; Acinetobacter baumannii, 24 h) [µg/mL] | other results |
| --- | --- | --- | --- | --- | --- | --- | --- | --- | --- |
| COCCn1c(C(=O)NNc2ccc(F)cc2)cccc1=O [Ex. 3, 1-(2-methoxyethyl)-6-oxo-1,6-dihydro-pyridine-2-carboxylic acid N′-(4-fluorophenyl)-hydrazide] | > 128 | > 128 | > 128 | > 128 | > 128 | > 128 | > 128 | < 0.25 |  |
| Cn1c(C(=O)NNc2c(F)cccc2F)cccc1=O [Ex. 13, 1-Methyl-6-oxo-1,6-dihydropyridine-2-carboxylic acid N′-(2,6-difluorophenyl)-hydrazide] | > 128 | > 128 | > 128 | > 128 | > 128 | > 128 | > 128 | 0.5 (≈ 1.79 µM) |  |
| O=C(NNc1ccc(F)cc1)c1cccc(=O)n1CC(F)(F)F [Ex. 8, 6-Oxo-1-(2,2,2-trifluoroethyl)-1,6-dihydropyridine-2-carboxylic acid N′-(4-fluorophenyl)-hydrazide] | > 128 | > 128 | > 128 | > 128 | > 128 | > 128 | > 128 | 0.25 (≈ 0.759 µM) |  |
| COc1ccc(NNC(=O)c2cccc(=O)n2C)cc1 [Ex. 9, 1-Methyl-6-oxo-1,6-dihydropyridine-2-carboxylic acid N′-(4-methoxyphenyl)-hydrazide] | > 128 | > 128 | > 128 | > 128 | > 128 | > 128 | > 128 | 0.25 (≈ 0.915 µM) |  |
| COc1cc(C(=O)NNc2ccc(F)cc2)n(C)c(=O)c1 [Ex. 21, 4-Methoxy-1-methyl-6-oxo-1,6-dihydropyridine-2-carboxylic acid N′-(4-fluorophenyl)-hydrazide] |  |  |  |  |  |  |  |  | MIC (S. aureus; [1]): > 128 µg/mL; MIC (P. aeruginosa; [2]): > 128 µg/mL; MIC (E. aerogenes; [3]): > 128 µg/mL; MIC (E. coli; [4]): > 128 µg/mL; MIC (K. pneumoniae; [5]): > 128 µg/mL; MIC (S. pneumoniae; [6]): > 128 µg/mL; MIC (E. faecium; [7]): > 128 µg/mL; MIC (A. baumannii; [8]): 0.25 µg/mL (≈ 0.858 µM) |
| CN(NC(=O)c1cccc(=O)n1C)c1ccc(F)cc1 [Ex. 20, 1-Methyl-6-oxo-1,6-dihydropyridine-2-carboxylic acid N′-(4-fluorophenyl)-N′-methyl-hydrazide] | > 128 | > 128 | > 128 | > 128 | > 128 | > 128 | > 128 | 64 (≈ 232 µM) |  |
| CN(C)C(=O)Cn1c(C(=O)NNc2ccc(F)cc2)cccc1=O [Ex. 14, 1-(2-(Dimethylamino)-2-oxoethyl)-6-oxo-1,6-dihydropyridine-2-carboxylic acid N′-(4-fluorophenyl)-hydrazide] | > 128 | > 128 | > 128 | > 128 | > 128 | > 128 | > 128 | 0.25 (≈ 0.752 µM) |  |
| Cn1ccc(C(=O)NNc2ccc(F)cc2)cc1=O [Ex. 18, 1-Methyl-2-oxo-1,2-dihydropyridine-4-carboxylic acid N′-(4-fluorophenyl)-hydrazide] |  |  |  |  |  |  |  |  | MIC (S. aureus; [1]): > 128 µg/mL; MIC (P. aeruginosa; [2]): > 128 µg/mL; MIC (E. aerogenes; [3]): > 128 µg/mL; MIC (E. coli; [4]): > 128 µg/mL; MIC (K. pneumoniae; [5]): > 128 µg/mL; MIC (S. pneumoniae; [6]): > 128 µg/mL; MIC (E. faecium; [7]): > 128 µg/mL; MIC (A. baumannii; [8]): 0.25 µg/mL (≈ 0.957 µM) |
| Cn1c(C(=O)NNc2ccc(F)cc2F)cccc1=O [Ex. 12, 1-Methyl-6-oxo-1,6-dihydropyridine-2-carboxylic acid N′-(2,4-difluorophenyl)-hydrazide] | > 128 | > 128 | > 128 | > 128 | > 128 | > 128 | > 128 | 0.25 (≈ 0.895 µM) |  |
| CCn1cccc(C(=O)NNc2ccc(F)cc2)c1=O [Ex. 16, 1-Ethyl-2-oxo-1,2-dihydropyridine-3-carboxylic acid N′-(4-fluorophenyl)-hydrazide] |  |  |  |  |  |  |  |  | MIC (S. aureus; [1]): > 128 µg/mL; MIC (P. aeruginosa; [2]): > 128 µg/mL; MIC (E. aerogenes; [3]): > 128 µg/mL; MIC (E. coli; [4]): > 128 µg/mL; MIC (K. pneumoniae; [5]): > 128 µg/mL; MIC (S. pneumoniae; [6]): > 128 µg/mL; MIC (E. faecium; [7]): > 128 µg/mL; MIC (A. baumannii; [8]): 0.5 µg/mL (≈ 1.82 µM) |
| NC(=O)Cn1c(C(=O)NNc2ccc(F)cc2)cccc1=O [Ex. 15, 1-(2-Amino-2-oxoethyl)-6-oxo-1,6-dihydropyridine-2-carboxylic acid N′-(4-fluorophenyl)-hydrazide] | > 128 | > 128 | > 128 | > 128 | > 128 | > 128 | > 128 | 0.5 (≈ 1.64 µM) |  |
| CCn1c(C(=O)NNc2ccc(F)cc2)cccc1=O [Ex. 2, 1-Ethyl-6-oxo-1,6-dihydro-pyridine-2-carboxylic acid N′-(4-fluoro-phenyl)-hydrazide] | > 128 | > 128 | > 128 | > 128 | > 128 | > 128 | > 128 | 1 (≈ 3.63 µM) |  |
| Cn1cccc(C(=O)NNc2ccc(F)cc2)c1=O [Ex. 17, 1-Methyl-2-oxo-1,2-dihydropyridine-3-carboxylic acid N′-(4-fluorophenyl)-hydrazide] | > 128 | > 128 | > 128 | > 128 | > 128 | > 128 | > 128 | 0.5 (≈ 1.91 µM) |  |
| C#CCn1c(C(=O)NNc2ccc(F)cc2)cccc1=O [Ex. 7, 1-(Prop-2-yn-1-yl)-6-oxo-1,6-dihydropyridine-2-carboxylic acid N′-(4-fluorophenyl)-hydrazide] | > 128 | > 128 | > 128 | > 128 | > 128 | > 128 | > 128 | 0.25 (≈ 0.876 µM) |  |
| Cn1c(C(=O)NNc2ccc(F)cc2)cccc1=O [Ex. 1, 1-Methyl-6-oxo-1,6-dihydro-pyridine-2-carboxylic acid N′-(4-fluoro-phenyl)-hydrazide] |  |  |  |  |  |  |  |  | MIC (S. aureus; [1]): > 128 µg/mL; MIC (P. aeruginosa; [2]): > 128 µg/mL; MIC (E. aerogenes; [3]): > 128 µg/mL; MIC (E. coli; [4]): 64 µg/mL (≈ 245 µM); MIC (K. pneumoniae; [5]): > 128 µg/mL; MIC (S. pneumoniae; [6]): > 128 µg/mL; MIC (E. faecium; [7]): > 128 µg/mL; MIC (A. baumannii; [8]): 0.5 µg/mL (≈ 1.91 µM) |
| O=C(NNc1ccc(F)cc1)c1cccc(=O)n1Cc1ccccc1 [Ex. 5, 1-Benzyl-6-oxo-1,6-dihydro-pyridine-2-carboxylic acid N′-(4-fluorophenyl)-hydrazide] |  |  |  |  |  |  |  |  | MIC (S. aureus; [1]): > 128 µg/mL; MIC (P. aeruginosa; [2]): > 128 µg/mL; MIC (E. aerogenes; [3]): > 128 µg/mL; MIC (E. coli; [4]): > 128 µg/mL; MIC (K. pneumoniae; [5]): > 128 µg/mL; MIC (S. pneumoniae; [6]): > 128 µg/mL; MIC (E. faecium; [7]): > 128 µg/mL; MIC (A. baumannii; [8]): 0.25 µg/mL (≈ 0.741 µM) |
| Cc1ccc(NNC(=O)c2cccc(=O)n2C)cc1 [Ex. 11, 1-Methyl-6-oxo-1,6-dihydropyridine-2-carboxylic acid N′-(4-methylphenyl)-hydrazide] | > 128 | > 128 | > 128 | > 128 | > 128 | > 128 | > 128 | 0.5 (≈ 1.94 µM) |  |
| Cn1c(C(=O)NNc2ccc(Cl)cc2)cccc1=O [Ex. 10, 1-Methyl-6-oxo-1,6-dihydropyridine-2-carboxylic acid N′-(4-chlorophenyl)-hydrazide] | > 128 | > 128 | > 128 | > 128 | > 128 | > 128 | > 128 | 0.25 (≈ 0.9 µM) |  |
| 1-Cyclopropylmethyl-6-oxo-1,6-dihydro-pyridine-2-carboxylic acid N′-(4-fluorophenyl)-hydrazide [Ex. 6] |  |  |  |  |  |  |  |  | MIC (S. aureus; S. aureus, 37° C., 24 hours, Cation adjusted Mueller-Hinton Broth): >128 µg/mL; MIC (P. aeruginosa; P. aeruginosa, 37° C., 24 hours, Cation adjusted Mueller-Hinton Broth): >128 µg/mL; MIC (E. aerogenes; E. aerogenes, 37° C., 24 hours, Cation adjusted Mueller-Hinton Broth): >128 µg/mL; MIC (E. coli; E. coli, 37° C., 24 hours, Cation adjusted Mueller-Hinton Broth): >128 µg/mL; MIC (K. pneumoniae; K. pneumoniae, 37° C., 24 hours, Cation adjusted Mueller-Hinton Broth): >128 µg/mL; MIC (S. pneumoniae; S. pneumoniae, 37° C., 24 hours, 2.5% lysed horse blood, 5% CO2): >128 µg/mL; MIC (E. faecium; E. faecium, 37° C., 24 hours, 2.5% lysed horse blood): >128 µg/mL; MIC (A. baumannii; A. baumannii, 37° C., 24 hours, Cation adjusted Mueller-Hinton Broth): <0.25 µg/mL |
